The source made the active and inactive calls. The rule behind the calls is not given here.
Tests used:
[1] = biological target: T1, Nuclear factor erythroid 2-related factor 2 (Homo sapiens) (UniProt Q16236); assay: Activation of Nrf2 in human L02 cells assessed as increase in NQO-1 expression measured after 12 hrs by Western blot analysis; assay type: cell-based
T1 sequence (whole entry): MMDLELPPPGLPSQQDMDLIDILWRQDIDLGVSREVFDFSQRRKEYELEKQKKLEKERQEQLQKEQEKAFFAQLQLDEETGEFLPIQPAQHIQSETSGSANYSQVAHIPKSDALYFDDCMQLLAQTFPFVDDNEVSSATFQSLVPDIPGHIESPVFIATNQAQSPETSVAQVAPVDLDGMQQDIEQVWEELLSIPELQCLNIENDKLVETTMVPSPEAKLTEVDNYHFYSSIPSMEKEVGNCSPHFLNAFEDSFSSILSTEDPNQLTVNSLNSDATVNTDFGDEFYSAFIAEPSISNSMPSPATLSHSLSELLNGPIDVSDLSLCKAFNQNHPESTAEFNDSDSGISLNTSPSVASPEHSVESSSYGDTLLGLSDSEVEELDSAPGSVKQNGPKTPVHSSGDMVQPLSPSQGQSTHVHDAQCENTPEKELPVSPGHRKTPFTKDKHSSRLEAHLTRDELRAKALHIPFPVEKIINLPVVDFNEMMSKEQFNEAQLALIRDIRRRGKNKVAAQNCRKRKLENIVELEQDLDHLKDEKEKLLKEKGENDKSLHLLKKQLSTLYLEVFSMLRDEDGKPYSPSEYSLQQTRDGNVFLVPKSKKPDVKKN

L02 [2] = assay: Upregulation of HO-1 mRNA expression in human L02 cells harboring Nrf2 siRNA at 10 uM measured after 10 hrs by trizol reagent based qRT-PCR analysis; assay type: functional, cell-based
Mus musculus [3] = assay: Protection against APAP-induced hepatotoxicity in C57BL/6 mouse assessed as decrease in disease score at 10 to 40 mg/kg, ip treated 2 hrs prior to 22 hrs starvation followed by APAP challenge and measured after 6 hrs by H and E staining-based light microscopic analysis; assay type: functional, organism-based
Mus musculus [4] = assay: Protection against APAP-induced hepatotoxicity in C57BL/6 mouse assessed as decrease in IL6 production at 10 mg/kg, ip treated 2 hrs prior to 22 hrs starvation followed by APAP challenge and measured after 6 hrs; assay type: functional, organism-based
Mus musculus [5] = assay: Protection against APAP-induced hepatotoxicity in C57BL/6 mouse assessed as decrease in TNFalpha production at 10 mg/kg, ip treated 2 hrs prior to 22 hrs starvation followed by APAP challenge and measured after 6 hrs; assay type: functional, organism-based
Mus musculus [6] = assay: Protection against APAP-induced hepatotoxicity in C57BL/6 mouse assessed as decrease in ALP level at 10 mg/kg, ip treated 2 hrs prior to 22 hrs starvation followed by APAP challenge and measured after 6 hrs; assay type: functional, organism-based
Mus musculus [7] = assay: Protection against APAP-induced hepatotoxicity in C57BL/6 mouse assessed as decrease in liver hemorrhage at 10 to 40 mg/kg, ip treated 2 hrs prior to 22 hrs starvation followed by APAP challenge and measured after 6 hrs by H and E staining-based light microscopic analysis; assay type: functional, organism-based
L02 [8] = assay: Upregulation of NQO-1 expression in human L02 cells harboring Nrf2 siRNA at 10 uM measured after 10 hrs by Western blot analysis; assay type: functional, cell-based
L02 [9] = assay: Upregulation of NQO-1 mRNA expression in human L02 cells harboring Nrf2 siRNA at 10 uM measured after 10 hrs by trizol reagent based qRT-PCR analysis; assay type: functional, cell-based
Mus musculus [10] = assay: Protection against APAP-induced hepatotoxicity in C57BL/6 mouse assessed as decrease in MDA activity in liver at 10 to 40 mg/kg, ip treated 2 hrs prior to 22 hrs starvation followed by APAP challenge and measured after 6 hrs; assay type: functional, organism-based
[11] = biological target: T1, Nuclear factor erythroid 2-related factor 2 (Homo sapiens); assay: Activation of Nrf2 in human L02 cells harboring control siRNA assessed as increase in NQO-1 expression at 10 uM measured after 10 hrs by Western blot analysis; assay type: cell-based
Mus musculus [12] = assay: Protection against APAP-induced hepatotoxicity in C57BL/6 mouse assessed as decrease in reactive oxygen species level in liver at 10 to 40 mg/kg, ip treated 2 hrs prior to 22 hrs starvation followed by APAP challenge and measured after 6 hrs; assay type: functional, organism-based
Mus musculus [13] = assay: (§1) Protection against APAP-induced hepatotoxicity in C57BL/6 mouse assessed as decrease in NQO1 expression in liver at 10 to 40 mg/kg, ip treated 2 hrs prior to 22 hrs starvation followed by APAP challenge and measured after 6 hrs by Dako/Mayer's hematoxylin staining-based immunohistochemical analysis; assay type: functional, organism-based
[14] = biological target: T1, Nuclear factor erythroid 2-related factor 2 (Homo sapiens); assay: Activation of Nrf2 in human L02 cells harboring control siRNA assessed as increase in NEFL2L mRNA expression at 10 uM measured after 10 hrs by trizol reagent based qRT-PCR analysis; assay type: cell-based
L02 [15] = assay: Upregulation of GCLM mRNA expression in human L02 cells harboring Nrf2 siRNA at 10 uM measured after 10 hrs by trizol reagent based qRT-PCR analysis; assay type: functional, cell-based
[16] = biological target: T1, Nuclear factor erythroid 2-related factor 2 (Homo sapiens); assay: Activation of Nrf2 in human L02 cells assessed as increase in GCLM mRNA expression measured after 12 hrs by trizol reagent based qRT-PCR analysis; assay type: cell-based
[17] = biological target: T1, Nuclear factor erythroid 2-related factor 2 (Homo sapiens); assay: Activation of Nrf2 in human L02 cells assessed as increase in NEFL2L expression at 10 uM measured after 4 to 72 hrs hrs by Western blot analysis; assay type: cell-based
[18] = biological target: T1, Nuclear factor erythroid 2-related factor 2 (Homo sapiens); assay: Activation of Nrf2 in human L02 cells harboring control siRNA assessed as increase in HO-1 expression at 10 uM measured after 10 hrs by Western blot analysis; assay type: cell-based
Mus musculus [19] = assay: as §1, with “alpha-SMA” for “NQO1”; assay type: functional, organism-based
Mus musculus [20] = assay: Protection against APAP-induced hepatotoxicity in C57BL/6 mouse assessed as decrease in ALT level at 10 mg/kg, ip treated 2 hrs prior to 22 hrs starvation followed by APAP challenge and measured after 6 hrs; assay type: functional, organism-based
[21] = biological target: T1, Nuclear factor erythroid 2-related factor 2 (Homo sapiens); assay: Activation of Nrf2 in human L02 cells assessed as increase in NQO-1 mRNA expression at 10 uM measured after 8 to 24 hrs by trizol reagent based qRT-PCR analysis; assay type: cell-based
Mus musculus [22] = assay: Protection against APAP-induced hepatotoxicity in C57BL/6 mouse assessed as decrease in HO-1 expression in liver at 10 to 40 mg/kg, ip treated 2 hrs prior to 22 hrs starvation followed by APAP challenge and measured after 6 hrs by Dako/Mayer's hematoxylin staining-based immunohistochemical analysis; assay type: functional, organism-based
L02 [23] = assay: cells; settings: Homo sapiens, L02, read-out: Activity
Description: Cytoprotective activity against APAP-induced apoptosis in human L02 cells assessed as viable cells at 10 uM preincubated for 12 hrs followed by APAP addition and measured after 12 hrs by FITC-Annexin V/propidium iodide staining based flow cytometry (Rvb = 50.6%)

L02 [24] = assay: Upregulation of NEFL2L expression in human L02 cells harboring Nrf2 siRNA at 10 uM measured after 10 hrs by Western blot analysis; assay type: functional, cell-based
Mus musculus [25] = assay: Protection against APAP-induced hepatotoxicity in C57BL/6 mouse assessed as destruction of liver structure at 10 to 40 mg/kg, ip treated 2 hrs prior to 22 hrs starvation followed by APAP challenge and measured after 6 hrs by H and E staining-based light microscopic analysis; assay type: functional, organism-based

In the case of `COc1ccc(S(=O)(=O)N(CC(=O)O)c2ccc(N3CCC[C@H]3C(=O)O)c3ccccc23)cc1`, the Activity [1] is reported as “Dose-dependent effect”, the Activity (L02 [2]) is reported as “inactive” and the Activity (Mus musculus [3]) is reported as “Active”. For the same compound, the Activity (Mus musculus [4]) was “Active”, the Activity (Mus musculus [5]) was “Active” and the Activity (Mus musculus [6]) was “Active”. The Activity (Mus musculus [7]) was “Active”, the Activity (L02 [8]) was “inactive” and the Activity (L02 [9]) was “inactive”. For the same compound, the Activity (Mus musculus [10]) was “Active”, the Activity [11] was “Active” and the Activity (Mus musculus [12]) was “Active”. For the same compound, the Activity (Mus musculus [13]) was “Active”, the Activity [14] was “Active” and the Activity (L02 [15]) was “inactive”. For the same compound, the Activity [16] was “Dose-dependent effect”, the Activity [17] was “Active” and the Activity [18] was “Active”. The Activity (Mus musculus [19]) was “Active”, the Activity (Mus musculus [20]) was “Active” and the Activity [21] was “Active”. The Activity (Mus musculus [22]) was “Active”, the viability at 10 µM (L02 [23]) was 76% and the Activity (L02 [24]) was “inactive”. For the same compound, the Activity (Mus musculus [25]) was “Active”.

— ChEMBL document CHEMBL4364299, “Discovery of a Potent Kelch-Like ECH-Associated Protein 1-Nuclear Factor Erythroid 2-Related Factor 2 (Keap1-Nrf2) Protein-Protein Interaction Inhibitor with Natural Proline Structure as a Cytoprotective Agent against Acetaminophen-Induced Hepatotoxicity” (J Med Chem, 2019)
